# From US4826813A, “4'-Methyl-β-mercapto-β,β-cyclopentamethylenepropionic acid vasopressin antagonists” (SmithKline Beckman Corporation, priority 1987, dated 1989)
# *1 amine or outer side, *2 acyl side, *3 side chain or, on linkers, in order; H or OH if unused. Where a SMILES comes first, the peptide text is derived from it. Bridges are numbered along the chain shown (N, C = ends). [ ]: non-standard residue; d: D form. X2 = C[C@H]1CC[C@@](CC(=O)[*:1])(S[*:2])CC1
# Tests used:
# [1] = target: vasopressin stimulated adenylate cyclase (V2 -receptors) (Sus scrofa, UniProt P32307); assay: biochemical
# Method: (§1) V2 -antagonistic activity toward the natural anti-diuretic hormone (anti-ADH activity) is determined, in vitro, in the medullary tissue of hog or human kidneys and, in vivo, in the hydropenic rat. The in vitro assay procedures for vasopressin stimulated adenylate cyclase activation or vasopressin binding activity are described by F. Stassen et al., J. Pharmacology and Experimental Therapeutics 223, 50-54 (1982). V1 -antagonistic activity is determined by procedures using the rat thoracic aorta tissue and plasma membranes of rat liver. These procedures are described in the noted Stassen publication and in a publication at the 1st International Conference on Diuretics, Miami, Fla., March (1984). Oxytocin antagonism is determined as described by W. Sawyer et al., Endocrinology 106, 81 (1979).
# (§2) The hydropenic rat screen and the hog kidney assay are known to the art, Huffman et al., U.S. Pat. No. 4,469,679.
# [2] = target: vasopressin receptors (V2 -receptors) (Sus scrofa, UniProt P32307); assay: biochemical
# Method: as §1, §2
# Chain of vasopressin receptors (V2 -receptors) (P32307 whole entry): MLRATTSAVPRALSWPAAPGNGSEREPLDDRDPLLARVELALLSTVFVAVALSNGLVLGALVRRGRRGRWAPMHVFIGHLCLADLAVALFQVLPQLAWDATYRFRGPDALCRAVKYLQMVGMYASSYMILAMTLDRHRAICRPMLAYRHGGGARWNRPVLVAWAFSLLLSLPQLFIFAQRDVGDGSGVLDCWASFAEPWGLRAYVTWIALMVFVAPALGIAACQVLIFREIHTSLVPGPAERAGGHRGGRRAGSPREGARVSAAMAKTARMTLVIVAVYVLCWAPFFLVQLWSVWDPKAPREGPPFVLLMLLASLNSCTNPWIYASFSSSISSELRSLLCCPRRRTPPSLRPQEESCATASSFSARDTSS
# Chain of vasopressin stimulated adenylate cyclase (V2 -receptors) (P32307 whole entry): as above
Structure (SMILES),Ki [1] [nM],Ki [2] [nM]
"CCOc1ccc(C[C@H]2NC(=O)C[C@]3(CC[C@H](C)CC3)SSC[C@@H](C(=O)N3CCC[C@H]3C(=O)N[C@@H](CCCNC(=N)N)C(=O)NCC(N)=O)NC(=O)[C@H](CC(N)=O)NC(=O)[C@H](C(C)C)NC(=O)[C@H](Cc3ccccc3)NC2=O)cc1 [DTyr(Et) GlyNH2, [1-(4'-methyl-β-mercapto-β,β-cyclopentamethylene propionic acid)-2-(O-ethyl)-D-tyrosine-4-valine-8-arginine]-vasopressin] ([dY](Et)FVNCPRG-NH2; linker N-5 via X2)",4.2,13
"CCOc1ccc(C[C@H]2NC(=O)C[C@]3(CC[C@H](C)CC3)SSC[C@@H](C(=O)N3CCC[C@H]3C(=O)N[C@@H](CCCNC(=N)N)C(N)=O)NC(=O)[C@H](CC(N)=O)NC(=O)[C@H](C(C)C)NC(=O)[C@H](Cc3ccccc3)NC2=O)cc1 [DTyr(Et) NH2, [1-(4'-methyl-β-mercapto-β,β-cyclopentamethylenepropionic acid)-2-(O-ethyl)-D-tyrosine-4-valine-8-arginine-9-desglycine]-vasopressin] ([dY](Et)FVNCPR-NH2; linker N-5 via X2)",–,19
COc1ccc(C[C@@H]2NC(=O)C[C@]3(CC[C@H](C)CC3)SSC[C@@H](C(=O)N3CCC[C@H]3C(=O)N[C@@H](CCCNC(=N)N)C(=O)NCC(N)=O)NC(=O)[C@H](CC(N)=O)NC(=O)[C@H](C(C)C)NC(=O)[C@H](Cc3ccccc3)NC2=O)cc1 [LTyr(Me) GlyNH2] (Y(Me)FVNCPRG-NH2; linker N-5 via X2),44,130
